Our source for the IC50 values is patent US20260209247A1, “Substituted Tricyclic Compounds” (Lupin Limited, priority 2019, published 2026).

Assay [1] deals with T1, protein-protein interaction between hSOS1 and hKRASG12C (Homo sapiens, UniProt Q07889).
T1 construct: GST-hSOS1, 564-1049aa expressed and purified in-house
T1 sequence (Q07889 564-1049): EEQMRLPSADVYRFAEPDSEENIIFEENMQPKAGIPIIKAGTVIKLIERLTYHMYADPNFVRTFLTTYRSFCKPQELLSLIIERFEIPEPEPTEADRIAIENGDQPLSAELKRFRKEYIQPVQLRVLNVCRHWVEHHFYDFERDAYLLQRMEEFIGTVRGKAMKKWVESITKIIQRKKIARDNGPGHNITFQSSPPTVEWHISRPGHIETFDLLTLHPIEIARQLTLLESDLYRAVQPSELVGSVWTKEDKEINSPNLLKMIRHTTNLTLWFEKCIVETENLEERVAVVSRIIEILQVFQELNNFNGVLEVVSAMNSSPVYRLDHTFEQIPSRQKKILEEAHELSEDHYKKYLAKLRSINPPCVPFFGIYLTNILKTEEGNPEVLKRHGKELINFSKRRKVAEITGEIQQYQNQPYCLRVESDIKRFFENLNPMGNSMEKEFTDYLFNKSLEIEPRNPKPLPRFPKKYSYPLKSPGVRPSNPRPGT
Briefly: KRAS-SOS1 interaction assay (HTRF). Type of assay: binding. Particulars: GST-hSOS1 564-1049aa, HIS-hKRASG12C, read-out: KRAS-SOS1 Interaction inhibition IC50. On the procedure:
Interaction assay was conducted to evaluate the ability of the compounds to disrupt the protein-protein interactions between hSOS1 and hKRASG12C. Inhibitory effect of compounds on GST-hSOS1, 564-1049aa expressed and purified in-house and HIS-hKRASG12C (R06-32DH, SignalChem) interaction was assessed using HTRF detection technology in biochemical assay. Compounds were pre-incubated with 10-50 nM working solution of hSOS1 per well of a 384 well plate (Perkin Elmer, Cat #6007290) for 10 min at 20° C. in the assay buffer containing 5 mM HEPES, pH 7.4, 150 mM NaCl, 10 mM EDTA, 1 mM DTT, 0.05% BSA fraction V and 0.0025% Igepal. Reaction was initiated by adding 100-300 nM working solution of hKRASG12C in assay buffer. Total assay volume was 15 μL. Reaction was continued for 30-60 min at 20° C. Then detection solution containing MAb Anti-GST-d2 (#61GSTDLA, Cisbio BioAssays) and MAb Anti-HIS-Tb (#61HISTLA, Cisbio BioAssays), all prepared in HTRF detection buffer (#61DB10RDF, Cisbio BioAssays) was added and further incubated for 30-60 min at 20° C. HTRF signal was recorded in PHERAStar microplate reader. Ratio of signal obtained at 665 nm and 620 nm was used to compute the percent inhibition of compound utilizing the following formula: […]
(In general: TR-FRET usually uses a lanthanide donor and a delayed reading to cut background.)

Assay [2] concerns the target T2, nucleotide exchange on hKRASG12C mediated by hSOS1 (Homo sapiens, UniProt Q07889).
T2 construct: HIS-hSOS1, 564-1049aa mediated GTP loading onto GST-hKRASG12C; His (N); made in house
T2 sequence (Q07889 564-1049): T1 sequence (Q07889 564-1049)
Briefly: Guanine nucleotide exchange assay (GNEA, HTRF). The class given is biochemical. The note with it: HIS-hSOS1 564-1049aa mediated GTP loading onto GST-hKRASG12C 1-169aa, read-out: Guanine nucleotide exchange inhibition IC50. The method, then: Example-154: Guanine nucleotide exchange assay (GNEA) GNEA assay was conducted to evaluate the effects of compounds on the nucleotide exchange on hKRASG12C mediated by hSOS1. Inhibitory effect of compounds on HIS-hSOS1, 564-1049aa mediated GTP loading onto GST-hKRASG12C, 1-169aa both expressed and purified in-house was assessed using HTRF detection technology in biochemical assay. Compounds were pre-incubated with hSOS1 working solution containing 10-50 nM hSOS1 and 200 nM EDA-GTP-DY-647P1 (Custom manufactured, Jena Biosciences) per well of a 384 well plate (Perkin Elmer, Cat #6007290) for 10 min at 20° C. in the assay buffer containing 10 mM HEPES, pH 7.4, 150 mM NaCl, 5 mM MgCl2, 1 mM DTT, 0.05% BSA fraction V and 0.0025% Igepal. Reaction was initiated by adding working solution of hKRASG12C containing 25-125 nM hKRASG12C and MAb Anti-GST-Tb (#61GSTTLA, Cisbio BioAssays) in assay buffer. Total assay volume was 15 μL. Reaction was continued for 30-60 min at 20° C. HTRF signal was recorded in PHERAStar microplate reader. Ratio of signal obtained at 665 nm and 620 nm was used to compute the percent inhibition of compound as follows.

In assay [3] the test system is pERK after EGF stimulation in DLD1 cells. Briefly: ERK phosphorylation assay (alphascreen pERK). Type of assay: cell-based. Particulars: Homo sapiens, DLD-1, 2 h compound, 200 ng/ml hEGF for 5 minutes, read-out: ERK phosphorylation inhibition IC50. The method, then:
Compounds were tested for their ability to inhibit pERK after EGF stimulation in DLD1 cells. Cells were seeded at 0.2 million cells per well in 96 well cell binding tissue culture plate in 100 μL complete media and were allowed to settle overnight (16 to 20 h). On the following day, cells were treated with various concentrations of test compounds for 2 h followed by stimulation with 200 ng/ml hEGF (diluted in PBS) for 5 minutes. Cells were then washed once with PBS and lysed in freshly prepared lysis buffer (provided with alphascreen surefire ERK1/2 p-T202/Y204 assay kit, cat no: TGRESB10K, Perkin Elmer). Lysis was carried out in plate shaker for 10-15 mins. Lysate was transferred to […] white opti-plate (Perkin Elmer) and alphascreen for pERK was carried out as per manufacturer's instructions. Plate was read after 2 h incubation in plate shaker at […] 300 RPM, 25-28° C. The difference between the unstimulated and stimulated Vehicle control is considered as 100% ERK phosphorylation, and % inhibition of compounds is calculated accordingly.
(In general: Bead proximity is the source of the signal in Alpha formats.)

As for `COC1(C)C(=O)N(C)c2cc3nc(C)nc(N[C@H](C)c4cccc(C(F)(F)C(C)(C)O)c4F)c3cc21` (mixture of isomers) [Compound 96, (R&S)-4-(((R)-1-(3-(1,1-difluoro-2-hydroxy-2-methylpropyl)-2-fluorophenyl)ethyl)amino)-6-methoxy-2,6,8-trimethyl-6,8-dihydro-7H-pyrrolo[3,2-g]quinazolin-7-one], the IC50 is 1 to 10 nM in assay [1], 1 to 30 nM in assay [2] and 1 to 200 nM in assay [3].

In the case of `Cc1nc(N[C@H](C)c2cccc(C(F)(F)[C@](C)(O)CO)c2F)c2cc3c(cc2n1)OC(C)(C)C(=O)N3C` (racemic) [Compound 23b, 4-(((R/S)-1-(3-((R/S)-1,1-difluoro-2,3-dihydroxy-2-methylpropyl)-2-fluorophenyl)ethyl)amino)-2,6,8,8-tetramethyl-6H-[1,4]oxazino[3,2-g]quinazolin-7(8H)-one], the IC50 in assay [1] lay within 1 to 10 nM; in assay [2] it was 1 to 30 nM; in assay [3], 1 to 200 nM.

As for `Cc1nc(N[C@H](C)c2cccc(C(F)(F)C(C)(C)O)c2F)c2cc3c(cc2n1)N(C)[C@@H](C)C(=O)N3C` (racemic) [Compound 27a, (S/R)-4-(((R)-1-(3-(1,1-difluoro-2-hydroxy-2-methylpropyl)-2-fluorophenyl)ethyl)amino)-2,6,8,9-tetramethyl-8,9-dihydropyrazino[2,3-g]quinazolin-7(6H)-one], the values for the half-inhibitory concentration (IC50) in assay [1], in assay [2] and in assay [3] were 1 to 10 nM, 1 to 30 nM and 1 to 200 nM, respectively.

In the case of `Cc1nc(N[C@H](C)c2cccc(C(F)(F)CO)c2F)c2cc3c(cc2n1)O[C@@H](C)CN3C` (racemic) [Compound 36a, 2,2-difluoro-2-(2-fluoro-3-((R)-1-(((S/R)-2,6,8-trimethyl-7,8-dihydro-6H-[1,4]oxazino[3,2-g]quinazolin-4-yl)amino)ethyl)phenyl)ethan-1-ol], the IC50 in assay [1] was in the range of 1 to 10 nM; in assay [2] it was 1 to 30 nM; in assay [3], 1 to 200 nM.

For the molecule `Cc1nc(N[C@H](C)c2cc(N)cc(C(F)(F)F)c2)c2cc3c(cc2n1)OCCN3C` [Compound 10, (R)—N-(1-(3-amino-5-(trifluoromethyl)phenyl)ethyl)-2,6-dimethyl-7,8-dihydro-6H-[1,4]oxazino[3,2-g]quinazolin-4-amine], the IC50 in assay [1] fell in the range of 1 to 10 nM; in assay [2], 31 to 130 nM.

As to `Cc1nc(N[C@H](C)c2cccc(C(F)(F)C(C)(C)O)c2F)c2cc3c(cc2n1)C(C)(C)C(=O)N3C1CC1` [Compound 65, (R)-6-cyclopropyl-4-((1-(3-(1,1-difluoro-2-hydroxy-2-methylpropyl)-2-fluorophenyl)ethyl)amino)-2,8,8-trimethyl-6,8-dihydro-7H-pyrrolo[2,3-g]quinazolin-7-one], the IC50 in assay [3] lay within 1 to 200 nM.

`Cc1nc(N[C@H](C)c2cccc(C(F)(F)CO)c2F)c2cc3c(cc2n1)C(C)(C)C(=O)N3C` [Compound 72, (R)-4-((1-(3-(1,1-difluoro-2-hydroxyethyl)-2-fluorophenyl)ethyl)amino)-2,6,8,8-tetramethyl-6,8-dihydro-7H-pyrrolo[2,3-g]quinazolin-7-one]: the IC50 is 1 to 10 nM in assay [1] and 1 to 30 nM in assay [2].

As for `Cc1nc(N[C@H](C)c2cccc(C(F)(F)C(C)(C)O)c2F)c2cc3c(cc2n1)C(C)(C)C(=O)N3C(C)C` [Compound 78, (R)-4-((1-(3-(1,1-difluoro-2-hydroxy-2-methylpropyl)-2-fluorophenyl)ethyl)amino)-6-isopropyl-2,8,8-trimethyl-6H-pyrrolo[2,3-g]quinazolin-7(8H)-one], the 50% inhibitory concentration (IC50) in assay [3] is 1 to 200 nM.

In the case of `Cc1nc(N[C@H](C)c2cccc(C(F)(F)C(C)(C)O)c2F)c2cc3c(cc2n1)C1(CC1)C(=O)N3C` [Compound 79, (R)-4′-((1-(3-(1,1-difluoro-2-hydroxy-2-methylpropyl)-2-fluorophenyl)ethyl)amino)-2′,6′-dimethylspiro[cyclopropane-1,8′-pyrrolo[2,3-g]quinazolin]-7′(6′H)-one], the IC50 in assay [3] lay in the range of 1 to 200 nM.

Turning to `Cc1nc(N[C@H](C)c2cccc(C(F)(F)C(C)(C)O)c2F)c2cc3c(cc2n1)N(C)C(C)(C)N3C` [Compound 108, (R)-1,1-difluoro-1-(2-fluoro-3-(1-((1,2,2,3,6-pentamethyl-2,3-dihydro-1H-imidazo[4,5-g]quinazolin-8-yl)amino)ethyl)phenyl)-2-methylpropan-2-ol], in assay [3], the IC50 was in the range of 201 to 500 nM.

For `Cc1nc(N[C@H](C)c2cccc(C(F)(F)C(C)(C)O)c2F)c2cc3c(cc2n1)oc(=O)n3C` [Compound 111, (R)-8-((1-(3-(1,1-difluoro-2-hydroxy-2-methylpropyl)-2-fluorophenyl)ethyl)amino)-1,6-dimethyloxazolo[4,5-g]quinazolin-2(1H)-one], in assay [3], the IC50 was 201 to 500 nM.

`Cc1nc(N[C@H](C)c2cccc(C(F)(F)C(C)(C)O)c2F)c2cc3c(cc2n1)CC(=O)N3C` [Compound 113, (R)-4-((1-(3-(1,1-difluoro-2-hydroxy-2-methylpropyl)-2-fluorophenyl)ethyl)amino)-2,6-dimethyl-6,8-dihydro-7H-pyrrolo[2,3-g]quinazolin-7-one]: the values for the IC50 in assay [1] and in assay [2] were 1 to 10 nM and 31 to 130 nM, respectively.

Consider `Cc1nc(N[C@H](C)c2cccc(C(F)(F)C(C)(C)O)c2F)c2cc3c(cc2n1)C(=O)N(C)C3(C)C` [Compound 114, (R)-4-((1-(3-(1,1-difluoro-2-hydroxy-2-methylpropyl)-2-fluorophenyl)ethyl)amino)-2,6,6,7-tetramethyl-6,7-dihydro-8H-pyrrolo[3,4-g]quinazolin-8-one], for which the IC50 in assay [3] lay within 1 to 200 nM.

`Cc1nc(N[C@H](C)c2cccc(C(F)(F)C(C)(C)O)c2F)c2cc3c(cc2n1)C(F)(F)C(=O)N3C` [Compound 117, (R)-4-((1-(3-(1,1-difluoro-2-hydroxy-2-methylpropyl)-2-fluorophenyl)ethyl)amino)-8,8-difluoro-2,6-dimethyl-6,8-dihydro-7H-pyrrolo[2,3-g]quinazolin-7-one]: the IC50 in assay [3] was in the range of 201 to 500 nM.

Usually IC50 stands for the point on the concentration scale where inhibition reaches its midpoint.
